Laboratory results as given in PubChem BioAssay AID489040 (Sanford-Burnham Center for Chemical Genomics, 2010).
Active and inactive are the calls of the source.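 How the source made its calls: active means mean half-maximal activating concentration from the dose-response fit at or below a set limit; inactive means the rest.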

Biological target: CHO-XBP1 luciferase reporter, IRE1-XBP1 UPR activation
Assay: XBP1 luciferase reporter activation – CHO-XBP1 cells, luminescence, counter-screen for apoptotic UPR arm activators, dose response (AID 489040);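 further: reporter read after six hours of compound exposure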

SMILES | EC50
Cc1cc(C(=O)CCl)c(C)n1-c1cccc(S(=O)(=O)N2CCOCC2)c1 | > 80 µM (inactive)
Cc1ccc2nc(-c3ccc(NC(=S)NC4CC(C)(C)NC(C)(C)C4)cc3)sc2c1 | > 80 µM (inactive)
COc1ccccc1N1CCN(Cc2ccc(O)c3ncccc23)CC1 | > 80 µM (inactive)
Nc1cccc(-c2nc3cc(S(=O)(=O)c4ccc5oc(-c6cccc(N)c6)nc5c4)ccc3o2)c1 | > 80 µM (inactive)
Cc1ccccc1CS(=O)(=O)c1ncc(Cl)c(C(=O)Nc2ccc(F)cc2)n1 | > 80 µM (inactive)
CC(C)c1ccc(N2C(=O)NC(=O)/C(=C\C=C\c3ccco3)C2=O)cc1 | > 80 µM (inactive)
COc1ccc(N=Nc2ccc(O)c3ncccc23)cc1 | inactive
Cc1[nH]c2c(C)cccc2c1CCNC(=O)c1ccc2c(c1[N+](=O)[O-])C(=O)c1ccccc1C2=O | > 80 µM (inactive)
C/C(=N\NC(=O)c1cccc2ccccc12)c1ccccn1 | > 80 µM (inactive)
COc1ccc(O)c(/C=N/Nc2nc(Nc3ccccc3)nc(-n3nc(C)cc3C)n2)c1 | > 80 µM (inactive)
Cc1ccc(NN2C(=O)C=C(c3ccccc3)C2=O)cc1 | > 80 µM (inactive)
C=C1C(=O)C=C[C@]2(C)C[C@@H]3OC(=O)[C@](C)(O)[C@H]3C[C@@H]12 | > 80 µM (inactive)
Oc1ccc(/C=N/Nc2cc(N3CCOCC3)nc(N3CCOCC3)n2)cc1O | > 80 µM (inactive)
CCc1cc2c(=O)[nH]c(-c3ccccn3)nc2s1 | > 80 µM (inactive)
Cc1ccc(S/C=C\C(=O)c2ccccc2)cc1 | > 80 µM (inactive)
Cc1ccc(-c2cc(-c3ccc(C)cc3)[n+](-c3ccccc3)c(-c3ccc(C)cc3)c2)cc1 | > 80 µM (inactive)
Cc1cc(C(=O)CCl)c(C)n1CCc1ccc(F)cc1 | > 80 µM (inactive)
CCCOc1ccc(N2C(=O)CC(N(O)c3ccccc3)C2=O)cc1 (stereo not given) | > 80 µM (inactive)
C/C(CC(C)(C)C1CCCCC1)=N\NC(N)=S | inactive
C/C(=N\NC(=O)c1ccccc1OCc1ccc(F)cc1)c1ccccn1 | > 80 µM (inactive)
O=C(/C=C/c1ccc(O)c(O)c1)OCCc1ccccc1 | > 80 µM (inactive)
O=C(/C(=C/c1cccc(Cl)c1)c1nc2ccccc2[nH]1)c1ccccc1 | > 80 µM (inactive)
O=C(Oc1oc(-c2ccco2)nc1C=Nc1ccc(Cl)cc1)c1ccco1 | > 80 µM (inactive)
CCOc1cc(/C=C2\CN(CC)C/C(=C\c3ccc(O)c(OCC)c3)C2=O)ccc1O | > 80 µM (inactive)

SMILES | EC50
CCOC(=O)c1c(CSC(=N)N)n(-c2ccc(C)cc2)c2cc(Br)c(OC(C)=O)cc12 | > 80 µM (inactive)
COc1ccc(-c2ccc(-c3nc4c(c(=O)[nH]c(=O)n4Cc4ccccc4)n3C)o2)c([N+](=O)[O-])c1 | > 80 µM (inactive)
O=[N+]([O-])c1ccc2nc(Cl)nc(-c3ccccc3)c2c1 | > 80 µM (inactive)
N#Cc1ccc(N/N=C/c2cn(-c3ccccc3)nc2-c2ccccc2)c([N+](=O)[O-])c1 | > 80 µM (inactive)
O=[N+]([O-])/C=C\c1ccc(N2CCOCC2)cc1 | > 80 µM (inactive)
CCOc1cccc(C(=O)Nc2cccc(-c3nnc(-c4ccc(C)cc4)o3)c2)c1 | > 80 µM (inactive)
O=C(CCl)Nc1ccc(-c2ccccc2)cc1 | > 80 µM (inactive)
Cc1cc(C(=O)c2ccc(Cl)cc2)c(NC(=O)CCl)s1 | > 80 µM (inactive)
COc1cc(C(Nc2ccccn2)c2ccc3ccc(C)nc3c2O)cc(OC)c1O (stereo not given) | > 80 µM (inactive)
O=C(COC(=O)c1ccccc1C(=O)c1ccc(Cl)c([N+](=O)[O-])c1)NC1CCCCCC1 | > 80 µM (inactive)
CCOc1ccc2nc(SC3CC(=O)N(c4ccc(C)cc4)C3=O)sc2c1 (stereo not given) | > 80 µM (inactive)
COc1ccc(OC)c(N=Cc2c(O)c3ccccc3oc2=O)c1 | 12 µM
CC1CCC/C=C/C2CC(O)CC2C(O)/C=C/C(=O)O1 (stereo not given) | > 80 µM (inactive)
COc1cc(C(=O)Oc2c(CN3CCOCC3)cc(Cl)c3cccnc23)cc(OC)c1OC | > 80 µM (inactive)
Cc1ccc(Sc2c([N+](=O)[O-])c(=O)n(C)c3ccccc23)cc1 | > 80 µM (inactive)
COc1cccc2sc(Nc3nc(C)c(C(C)=O)s3)nc12 | > 80 µM (inactive)
O=C(N/N=C\c1cc2c(cc1Cl)OCO2)c1ccc(Br)s1 | > 80 µM (inactive)
CC(=O)/C(=C/c1ccccc1)C(=O)Nc1ccccc1C | > 80 µM (inactive)
Cc1ccc(CS(=O)(=O)c2ncc(Cl)c(C(=O)Nc3ccc(OC(F)F)cc3)n2)cc1 | > 80 µM (inactive)
COc1ccc(CNC[C@@H](CCCCN(C)Cc2ccc(OC)cc2)N2C[C@H](c3ccccc3)N(CCc3ccc(Cl)c(Cl)c3)C(=O)C2=O)cc1 | > 80 µM (inactive)
O=C(Nc1ccc(S(=O)(=O)N2CCCC2)cc1)c1ccc([N+](=O)[O-])o1 | > 80 µM (inactive)
Cc1cccc(Nc2nc3c(S(=O)(=O)c4ccccc4)nnn3c3ccccc23)c1C | inactive
C/C(=N\NC(=O)c1ccc(Cl)cc1)c1ccccn1 | > 80 µM (inactive)
COc1ccc2c(C(=O)CCl)c[nH]c2c1 | > 80 µM (inactive)

SMILES | EC50
CCOC(=O)C(=Cc1ccc(OCc2ccc([N+](=O)[O-])cc2)c(OC)c1)C(=O)OCC | > 80 µM (inactive)
Cc1cc(C)nc(S/C=C/C(=O)c2ccccc2)n1 | > 80 µM (inactive)
O=C(Oc1c(CN2CCOCC2)cc(Cl)c2cccnc12)c1ccccc1F | > 80 µM (inactive)
C[C@@H]1C[C@@H]2O[C@H]2/C=C\C=C\C(=O)Cc2c(Cl)c(O)cc(O)c2C(=O)O1 | > 80 µM (inactive)
Cc1ccc(C[n+]2c(-c3ccc(C)cc3)cc(-c3ccc(C)cc3)cc2-c2ccc(C)cc2)cc1 | > 80 µM (inactive)
c1ccc(-c2nc(N3CCCCCC3)c3ccccc3n2)nc1 | > 80 µM (inactive)
Cc1ccc(N2CCN(c3ccc(NCc4nc5ccccc5n4C)cc3)CC2)cc1 | inactive
COc1ccc(-c2cc(C(F)F)n3ncc(C(=O)n4ccnc4C)c3n2)cc1 | > 80 µM (inactive)
CCOc1cc(NC(=O)CCl)c(OCC)cc1NC(=O)CCl | > 80 µM (inactive)
CCOC(=O)c1ccc(N=C2C(=S)N(c3ccc(C(=O)OCC)cc3)C(=N)N2/N=C/c2ccccc2)cc1 | > 80 µM (inactive)
Cc1cc(SCC(=O)N/N=C/c2ccc(O)c(O)c2)nc2ccccc12 | inactive
N#C/C(=C\c1ccc([N+](=O)[O-])o1)C(=O)Nc1ccc(F)cc1 | > 80 µM (inactive)
O=C(N/N=C/c1ccccn1)c1cc(-c2ccc(Cl)cc2)nc2ccccc12 | > 80 µM (inactive)
COC(=O)c1ccc(COc2ccccc2/C=C(\C#N)C(=O)Nc2c(C)cccc2C)cc1 | inactive
Oc1ccc(/C=N/Nc2ccnc3cc(Cl)ccc23)cc1O | 8.71 µM
CC(C)N=c1scc(-c2ccco2)n1/N=C/c1ccc(O)c(O)c1 | 4.51 µM
O=C(/C(=C/c1ccc(Cl)cc1)c1nc2ccccc2[nH]1)c1cccs1 | > 80 µM (inactive)
S=C1SCN(CC2CC2)CN1CC1CC1 | > 80 µM (inactive)
O=C1C=CC(=O)N1c1ccc(N2CCCCC2)cc1 | > 80 µM (inactive)
COc1cc(/C=C(/C(=O)c2cccs2)c2nc3ccccc3[nH]2)cc(OC)c1O | > 80 µM (inactive)
O=C(NCc1ccccc1Cl)c1cccc2c1C(=O)c1ccc(-c3ccc(OC(F)(F)F)cc3)cc1S2(=O)=O | inactive
O=C(Nc1nccs1)c1cccc(N2C(=O)c3cccc4c([N+](=O)[O-])ccc(c34)C2=O)c1 | > 80 µM (inactive)
O=C(N/N=C(\c1ccccc1)c1cccnc1)c1cccc(F)c1 | > 80 µM (inactive)
COC(=O)c1cc(=O)n(Cc2ccc3c(c2)OCO3)c(=Nc2ccc(F)c(Cl)c2)s1 | > 80 µM (inactive)

SMILES | EC50
Cc1ccc(-c2nc(N/N=C/c3cccc([N+](=O)[O-])c3)c3ccccc3n2)cc1 | > 80 µM (inactive)
O=C1NC(=O)N(c2ccccc2)C(=O)/C1=C/C=C/c1ccco1 | > 80 µM (inactive)
O=[N+]([O-])c1ccc(N/N=C/c2cccc(O)c2O)c(S(=O)(=O)N2CCOCC2)c1 | inactive
Cc1cc(C(=O)CCl)c(C)n1-c1cccc([N+](=O)[O-])c1 | > 80 µM (inactive)
Cc1nn(-c2ccccc2)c(C)c1/C=N/NC(=O)CSc1nc2ccccc2c(=O)n1-c1ccc(Br)cc1 | 9.09 µM
CCOC(=O)C1CCN(Cc2ccc(O)c3ncccc23)CC1 | > 80 µM (inactive)
Cc1ccccc1NC(=O)c1ccc(N/N=C/c2ccccc2O)c([N+](=O)[O-])c1 | > 80 µM (inactive)
Cn1nnnc1Sc1ncnc2scc(-c3cc4ccccc4o3)c12 | > 80 µM (inactive)
Oc1ccc(CN2CCC(Cc3ccccc3)CC2)c2cccnc12 | > 80 µM (inactive)
Oc1cc(-c2ccncc2)cc2cccnc12 | > 80 µM (inactive)
C/C(=N\NC(=O)c1cccc(Br)c1)c1ccccn1 | > 80 µM (inactive)
O=C(Oc1c(CN2CCOCC2)cc(Cl)c2cccnc12)c1ccc(F)cc1 | > 80 µM (inactive)
Cc1ccccc1S(=O)(=O)NC1OC(=O)C(Cl)=C1Cl (stereo not given) | > 80 µM (inactive)
CCN(CC)S(=O)(=O)c1cc(NC(=O)Cn2ncc(Cl)c(Cl)c2=O)ccc1C | > 80 µM (inactive)
O=C(/C=C/c1ccc([N+](=O)[O-])cc1)/C=C/c1ccco1 | > 80 µM (inactive)
CCCCOc1ccc(N2C(=O)CC(N(O)c3ccccc3)C2=O)cc1 (stereo not given) | > 80 µM (inactive)
Cc1cc(O)c(-c2cc(O)c(C)cc2O)cc1O | > 80 µM (inactive)
CCOC(=O)/C(=C\c1cccc(O)c1)c1nc2sc(C)c(C)c2c(=O)[nH]1 | > 80 µM (inactive)
C/C(CCC12CC3CC(CC(C3)C1)C2)=N\NC(N)=S | > 80 µM (inactive)
CCOC(=O)c1ccc(-c2ccc(/C=N/NC(=O)CN(c3cccc(C)c3)S(C)(=O)=O)o2)cc1 | inactive
O=C(NC1CCCC1)C(c1ccc(Cl)cc1)N(Cc1ccc(F)cc1)C(=O)CCl (stereo not given) | > 80 µM (inactive)
O=C1CC(c2cccc(Cl)c2)CC(O)=C1C=Nc1ccccc1 (stereo not given) | > 80 µM (inactive)
CCc1ccc2nc(N(CCCN(C)C)C(=O)c3ccc(S(=O)(=O)N4CCc5ccccc5C4)cc3)sc2c1 | > 80 µM (inactive)
